What was measured:
[1] = tested on: SNB-19; assay: Antiproliferative activity against human SNB-19 cells assessed as reduction in cell proliferation incubated for 72 hrs by WST-1 assay; assay type: functional, cell-based; settings: SNB-19, 72 h
[2] = tested on: TC-32; assay: Antiproliferative activity against human TC-32 cells assessed as reduction in cell proliferation incubated for 72 hrs by WST-1 assay; assay type: functional, cell-based; settings: TC-32, 72 h
[3] = tested on: MDA-MB-231; assay: Antiproliferative activity against human MDA-MB-231 cells assessed as reduction in cell proliferation incubated for 72 hrs by WST-1 assay; assay type: functional, cell-based; settings: MDA-MB-231, 72 h
[4] = tested on: LoVo; assay: Antiproliferative activity against human LoVo cells assessed as reduction in cell viability incubated for 48 hrs by MTT assay; assay type: functional, cell-based
[5] = tested on: LoVo; assay: Cytotoxicity against human LoVo cells assessed as reduction in cell viability incubated for 72 hrs by MTT assay; assay type: functional
[6] = Antiproliferative activity against human Lovo/DX cells assessed as reduction in cell viability; assay type: functional, cell-based
[7] = Cytotoxicity against human Lovo/DX cells assessed as reduction in cell viability incubated for 72 hrs by MTT assay; assay type: functional
[8] = tested on: BXPC-3; assay: Cytotoxicity against human BXPC-3 cells assessed as reduction in cell viability incubated for 72 hrs by MTT assay; assay type: functional, cell-based; settings: BXPC-3, 72 h
[9] = tested on: ASPC1; assay: Cytotoxicity against human ASPC1 cells assessed as reduction in cell viability incubated for 24 hrs by MTT assay; assay type: functional, cell-based; settings: ASPC1, 24 h
[10] = tested on: PANC-1; assay: Cytotoxicity against human PANC-1 cells assessed as cell growth inhibition incubated for 48 hrs by WST-1 assay; assay type: functional, cell-based; settings: PANC-1, 48 h
[11] = tested on: SW1990; assay: Cytotoxicity against human SW1990 cells measured after 8 days; assay type: functional, cell-based; settings: SW1990, 192 h
[12] = tested on: MRC5; assay: Cytotoxicity against human MRC5 cells assessed as reduction in cell growth incubated for 48 hrs by CCK8 assay; assay type: functional, cell-based; settings: MRC5, 48 h
[13] = tested on: SNB-19; assay: Anticancer activity against human SNB-19 cells assessed as reduction in cell growth incubated for 48 hrs by SRB assay; assay type: functional, cell-based; settings: SNB-19, 48 h
[14] = tested on: TC-32; assay: Anticancer activity against human TC-32 cells assessed as reduction in cell growth incubated for 48 hrs by SRB assay; assay type: functional, cell-based; settings: TC-32, 48 h
[15] = tested on: MDA-MB-231; assay: Anticancer activity against human MDA-MB-231 cells assessed as reduction in cell viability measured after 72 hrs by MTT assay; assay type: functional, cell-based; settings: MDA-MB-231, 72 h
[16] = tested on: THP-1; assay: Antiproliferative activity against human THP-1 cells assessed as cell growth inhibition measured after 24 hrs by MTT assay; assay type: functional, cell-based; settings: THP-1, 24 h
[17] = tested on: HL-60; assay: Antiproliferative activity against human HL-60 cells assessed as cell growth inhibition measured after 24 hrs by MTT assay; assay type: functional, cell-based; settings: HL-60, 24 h
[18] = Antiproliferative activity against human PBMC cells assessed as reduction in cell viability measured after 24 hrs by MTT assay; assay type: functional, cell-based
[19] = tested on: MCF7; assay: Antitumor activity against human MCF7 cells assessed as inhibition of cell growth at 1000 ug measured after 48 hrs by spectrophotometric analysis relative to control; assay type: functional; set-up: scale not given: the % may be the effect or the level left; settings: dose 1000 µg
[20] = tested on: MCF7; assay: Antitumor activity against human MCF7 cells assessed as increase in LDH level at 1000 ug relative to control; assay type: functional; settings: dose 1000 µg
[21] = tested on: CT26; assay: Antitumor activity against mouse CT26 cells assessed as reduction in cell viability incubated for 4 hrs by MTT assay; assay type: functional, cell-based; settings: CT26, 4 h
[22] = tested on: CT26; assay: Antitumor activity against mouse CT26 cells assessed as tumor growth inhibition incubated for 4 hrs by MTT assay relative to control; assay type: functional; set-up: scale not given: the % may be the effect or the level left
[23] = tested on: SW1990; assay: Antiproliferative activity against human SW1990 cells assessed as reduction in cell viability; assay type: functional, cell-based
[24] = tested on: ASPC1; assay: Antiproliferative activity against human AsPC1 cells assessed as inhibition of cell proliferation incubated for 6 days by CCK8 assay; assay type: functional, cell-based; settings: ASPC1, 144 h
[25] = tested on: CWR22R; assay: Antiproliferative activity against human 22Rv1 cells assessed as cell viability incubated for 96 hrs by Cell-Titer Glo assay; assay type: functional, cell-based; settings: 22Rv1, 96 h
[26] = tested on: RAW264.7; assay: Cytotoxicity against mouse RAW264.7 cells assessed as reduction in cell viability incubated for 72 hrs; assay type: functional, cell-based; settings: RAW264.7, 72 h
[27] = tested on: HepG2; assay: Cytotoxicity against human HepG2 cells assessed as reduction in cell viability incubated for 48 hrs by MTT assay; assay type: functional, cell-based; settings: HepG2, 48 h
[28] = tested on: MCF7; assay: Cytotoxicity against human MCF7 cells assessed as cell growth inhibition measured after 48 hrs by MTT assay; assay type: functional, cell-based; settings: MCF7, 48 h
[29] = tested on: HSC-2; assay: Cytotoxicity against human HSC-2 cells assessed as reduction in cell viability measured after 48 hrs by MTT assay; assay type: functional
[30] = tested on: HSC-3; assay: Cytotoxicity against human HSC-3 cells assessed as reduction in cell viability incubated for 48 hrs by MTT assay; assay type: functional
[31] = tested on: HSC-4; assay: Cytotoxicity against human HSC-4 cells assessed as reduction in cell viability incubated for 48 hrs by MTT assay; assay type: functional
[32] = tested on: SNB-19; assay: Anticancer activity against human SNB-19 cells assessed as reduction in cell proliferation incubated for 72 hrs by WST-1 assay; assay type: functional, cell-based; settings: SNB-19, 72 h
[33] = tested on: Caco-2; assay: Cytotoxicity against human Caco-2 cells assessed as reduction in cell proliferation incubated for 72 hrs by WST-1 assay; assay type: functional, cell-based; settings: Caco-2, 72 h
[34] = tested on: A549; assay: Antiproliferative activity against human A549 cells assessed as reduction in cell viability incubated for 72 hrs by WST-1 assay; assay type: functional, cell-based; settings: A549, 72 h
[35] = tested on: MDA-MB-231; assay: Antiproliferative activity against human MDA-MB-231 cells assessed as reduction in cell viability incubated for 72 hrs by WST-1 assay; assay type: functional, cell-based; settings: MDA-MB-231, 72 h
[36] = tested on: NHDF; assay: Cytotoxicity against human NHDF cells assessed as reduction in cell viability incubated for 72 hrs by WST-1 assay; assay type: functional, cell-based

`CCN(CC)CCN1c2ncccc2Sc2cccnc21` showed an IC50 [1] of 0.33 µM, an IC50 [2] of 14.4 µM and an IC50 [3] of 2.13 µM.

`OCCOCCN1CCN(CC(O)CN2c3ccccc3Sc3ccc(C(F)(F)F)cc32)CC1` (stereo unspecified) showed an IC50 [4] of 50 µM, an IC20 [5] of 6 µM and an IC50 [6] of 20 µM. For the same compound, the IC20 [7] was 4 µM.

Compound `CN(CCO)CC(O)CN1c2ccccc2Sc2ccc(C(F)(F)F)cc21` (stereo unspecified) has an IC50 [4] of 50 µM, an IC20 [5] of 12 µM and an IC50 [6] of 42 µM. For the same compound, the IC20 [7] was 8 µM.

`CC1=C(C(=O)Nc2ccc(Cl)c(Cl)c2)C(c2ccc3c(c2)Sc2ccccc2N3)C(C(=O)Nc2ccc(Cl)c(Cl)c2)=C(C)N1` gave an IC50 [8] of 6.31 µM, an IC50 [9] of 6.31 µM and an IC50 [10] of 6.31 µM. The IC50 [11] was 6.31 µM and the IC50 [12] was 70.5 µM.

`C(#CCN1c2ccncc2Sc2ncccc21)CN1CCN(c2ccccc2)CC1` gave an IC50 [13] of 0.45 µM, an IC50 [14] of 4.57 µM and an IC50 [15] of 0.74 µM.

In the case of `CCCCCCCCCCc1nc2cc3c(cc2s1)N(C)c1ccccc1S3`, the IC50 [16] is reported as 21.6 µM, the IC50 [17] is reported as 67.3 µM and the IC50 [18] is reported as greater than 2000 µM.

`CN1c2ccccc2Sc2cc(/C=C/C(=O)c3ccccc3)ccc21` showed an Activity [19] of 21% and an Activity [20] of 64%.

Compound `CC(=O)c1ccc(N2CCN(CC(O)CN3c4ccccc4Sc4ccc(C(F)(F)F)cc43)CC2)cc1` (stereo unspecified) has an IC50 [4] of 100 µM, an IC20 [5] of 3 µM and an IC50 [6] of 100 µM. It also gave an IC20 [7] of 4 µM.

`COCCOCCOCCOCCOCCOCCOCCOCCOCCOCCOCCOCCN1c2ccccc2Sc2ccccc21` gave an IC50 [21] of 344 µM and an Activity [22] of 92%.

`CCN1c2ccccc2Sc2cc(C3NC(=O)NC(C)=C3C(=O)Nc3ccccc3)ccc21` (stereo unspecified) gave an IC50 [12] of 83.7 µM, an IC50 [23] of 22.8 µM and an IC50 [24] of 15.7 µM.

For `O=C(Nc1ccc(OCCCN2CCNCC2)cc1)N1c2ccccc2Sc2ccccc21`, the IC50 [25] was 13.5 µM and the IC50 [26] was 60.1 µM.

`CCCCCCCCCCCCN1c2ccccc2Sc2ccc(C(=O)/C=C/c3ccc(Cl)cc3)cc21` gave an IC50 [27] of 7.14 µM and an IC50 [28] of 13.8 µM.

For `COc1cc(OC)c(OC)cc1/C=C/C(=O)c1ccc2c(c1)Nc1ccccc1S2`, the CC50 [29] was 4.9 µM, the CC50 [30] was 311 µM and the CC50 [31] was 8 µM.

`Clc1ccc(Cn2cc(CN3c4cccnc4Sc4cccnc43)nn2)cc1` gave an IC50 [32] of 4.66 µM, an IC50 [33] of 0.25 µM and an IC50 [34] of 0.25 µM. For the same compound, the IC50 [35] was 0.51 µM and the IC50 [36] was greater than 100 µM.

In the case of `CCCCCCCCCCCCN1c2ccccc2Sc2ccc(C(=O)/C=C/c3cc(OC)c(OC)c(OC)c3)cc21`, the IC50 [27] is reported as 7.6 µM and the IC50 [28] is reported as 12 µM.

Work on `OCCN1CCN(CCCN2c3ccccc3Sc3ccc(C(F)(F)F)cc32)CC1` [FLUPHENAZINE] yielded an IC50 [4] of 80 µM, an IC20 [5] of 22 µM and an IC50 [6] of 80 µM. It also gave an IC20 [7] of 22 µM.

From ChEMBL document CHEMBL5344416, “Phenothiazines as anti-cancer agents: SAR overview and synthetic strategies” (Eur J Med Chem, 2023)
